pIC50: −log10 of the molar value. Where “and” joins values, the source holds several entries; their conditions need not be identical. Identical values can stand only once.
System: 377384-186-R-J1-PDC complex spheroid viability
Assay: Anticancer human tumor 377384-186-R-J1-PDC patient-derived pancreatic carcinoma cell line growth inhibition [CLK]
Conditions: for viability, T/C: stronger effect = lower value; active = viability on the fitted dose curve at most 10% of control; inactive = the rest
Method in brief: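 Patient-derived tumor cells grown as complex spheroids with HUVEC endothelial cells and mesenchymal stem cells, treated with drug combinations. Concentrations descend in half-log steps from near clinical Cmax, or from 10 microM if Cmax unknown.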

[1] = curve of first compound, second compound 0.0316 µM
[2] = curve of first compound, second compound 0.1 µM
[3] = curve of first compound, second compound 0.316 µM
[4] = curve of first compound, second compound 1 µM
[5] = curve of first compound, second compound 3.16 µM
[6] = curve of first compound, second compound 10 µM
[7] = second compound 0.0316 µM, first compound 0.0316 µM
[8] = second compound 0.0316 µM, first compound 0.1 µM
[9] = second compound 0.0316 µM, first compound 0.316 µM
[10] = second compound 0.0316 µM, first compound 1 µM
[11] = second compound 0.0316 µM, first compound 3.16 µM
[12] = second compound 0.0316 µM, first compound 10 µM
[13] = second compound 0.1 µM, first compound 0.0316 µM
[14] = second compound 0.1 µM, first compound 0.1 µM
[15] = second compound 0.1 µM, first compound 0.316 µM
[16] = second compound 0.1 µM, first compound 1 µM
[17] = second compound 0.1 µM, first compound 3.16 µM
[18] = second compound 0.1 µM, first compound 10 µM
[19] = second compound 0.316 µM, first compound 0.0316 µM
[20] = second compound 0.316 µM, first compound 0.1 µM
[21] = second compound 0.316 µM, first compound 0.316 µM
[22] = second compound 0.316 µM, first compound 1 µM
[23] = second compound 0.316 µM, first compound 3.16 µM
[24] = second compound 0.316 µM, first compound 10 µM
[25] = second compound 1 µM, first compound 0.0316 µM
[26] = second compound 1 µM, first compound 0.1 µM
[27] = second compound 1 µM, first compound 0.316 µM
[28] = second compound 1 µM, first compound 1 µM
[29] = second compound 1 µM, first compound 3.16 µM
[30] = second compound 1 µM, first compound 10 µM
[31] = second compound 3.16 µM, first compound 0.0316 µM
[32] = second compound 3.16 µM, first compound 0.1 µM
[33] = second compound 3.16 µM, first compound 0.316 µM
[34] = second compound 3.16 µM, first compound 1 µM
[35] = second compound 3.16 µM, first compound 3.16 µM
[36] = second compound 3.16 µM, first compound 10 µM
[37] = second compound 10 µM, first compound 0.0316 µM
[38] = second compound 10 µM, first compound 0.1 µM
[39] = second compound 10 µM, first compound 0.316 µM
[40] = second compound 10 µM, first compound 1 µM
[41] = second compound 10 µM, first compound 3.16 µM
[42] = second compound 10 µM, first compound 10 µM
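Also: spheroids exposed to agents for 7 days before reading.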
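For viability, T/C in this document: luminescence signal used as a stand-in for viable cells.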

C=CC(=O)Nc1cc(Nc2nccc(-c3cn(C)c4ccccc34)n2)c(OC)cc1N(C)CCN(C)C + CN1CCN(c2cc(C(=O)Nc3cc4cc(-c5cnn(C)c5)ccc4cn3)ccn2)CC1
inactive: viability, T/C (second compound 0.0316 µM, first compound 0.000949 µM) 91.6% | viability, T/C (second compound 0.0316 µM, first compound 0.003 µM) 100% | viability, T/C (second compound 0.0316 µM, first compound 0.00949 µM) 90.7% | viability, T/C (second compound 0.0316 µM, first compound 0.03 µM) 93.6% | viability, T/C (second compound 0.0316 µM, first compound 0.0949 µM) 79.5% | viability, T/C (second compound 0.0316 µM, first compound 0.3 µM) 76.3% | viability, T/C (second compound 0.1 µM, first compound 0.000949 µM) 109% | viability, T/C (second compound 0.1 µM, first compound 0.003 µM) 99.4% | viability, T/C (second compound 0.1 µM, first compound 0.00949 µM) 83.3% | viability, T/C (second compound 0.1 µM, first compound 0.03 µM) 91.2% | viability, T/C (second compound 0.1 µM, first compound 0.0949 µM) 79.2% | viability, T/C (second compound 0.1 µM, first compound 0.3 µM) 63% | viability, T/C (second compound 0.316 µM, first compound 0.000949 µM) 26.1% | viability, T/C (second compound 0.316 µM, first compound 0.003 µM) 26.6% | viability, T/C (second compound 0.316 µM, first compound 0.00949 µM) 25.1% | viability, T/C (second compound 0.316 µM, first compound 0.03 µM) 26.5% | viability, T/C (second compound 0.316 µM, first compound 0.0949 µM) 23.7% | viability, T/C (second compound 0.316 µM, first compound 0.3 µM) 22.2%
< 6.52: pIC50 [1] | pIC50 [2]
active: viability, T/C (second compound 1 µM, first compound 0.000949 µM) 1.11% | viability, T/C (second compound 1 µM, first compound 0.003 µM) 1.28% | viability, T/C (second compound 1 µM, first compound 0.00949 µM) 2.15% | viability, T/C (second compound 1 µM, first compound 0.03 µM) 1.55% | viability, T/C (second compound 1 µM, first compound 0.0949 µM) 1.26% | viability, T/C (second compound 1 µM, first compound 0.3 µM) 1.63% | viability, T/C (second compound 3.16 µM, first compound 0.000949 µM) 0.48% | viability, T/C (second compound 3.16 µM, first compound 0.003 µM) 0.71% | viability, T/C (second compound 3.16 µM, first compound 0.00949 µM) 1.03% | viability, T/C (second compound 3.16 µM, first compound 0.03 µM) 0.37% | viability, T/C (second compound 3.16 µM, first compound 0.0949 µM) 0.75% | viability, T/C (second compound 3.16 µM, first compound 0.3 µM) 2.51% | viability, T/C (second compound 10 µM, first compound 0.000949 µM) 0.83% | viability, T/C (second compound 10 µM, first compound 0.003 µM) 1.36% | viability, T/C (second compound 10 µM, first compound 0.00949 µM) 1.97% | viability, T/C (second compound 10 µM, first compound 0.03 µM) 0.66% | viability, T/C (second compound 10 µM, first compound 0.0949 µM) 2.03% | viability, T/C (second compound 10 µM, first compound 0.3 µM) 0.56%
> 9.02: pIC50 [3] | pIC50 [4] | pIC50 [5] | pIC50 [6]

COc1ccc([C@@H](O)c2cc(-c3ncnc4cc(N5CCOCC5)ccc34)c(F)cc2Cl)nn1
5.36 and 5.68: pIC50 (curve of compound)
inactive: viability, T/C (compound 0.0316 µM) 88.4% and 91.3% | viability, T/C (compound 0.1 µM) 92.5% and 94.2% | viability, T/C (compound 0.316 µM) 73% and 78.6% | viability, T/C (compound 1 µM) 66.6% and 61.9% | viability, T/C (compound 3.16 µM) 59.3% and 44.2% | viability, T/C (compound 10 µM) 35.7% and 31%

C=C(F)C(=O)N1CCN(c2nc(OCC3CCCN3C)nc3c2CCN(c2cccc4cccc(Cl)c24)C3)CC1CC#N (stereo not given) + CN1CCN(c2cc(C(=O)Nc3cc4cc(-c5cnn(C)c5)ccc4cn3)ccn2)CC1
active: viability, T/C [12] 0.18% | viability, T/C [18] 0.15% | viability, T/C [24] 0.31% | viability, T/C [25] 1.57% | viability, T/C [26] 1.56% | viability, T/C [27] 2.02% | viability, T/C [28] 1.49% | viability, T/C [29] 1.66% | viability, T/C [30] 0.44% | viability, T/C [31] 0.52% | viability, T/C [32] 0.83% | viability, T/C [33] 0.4% | viability, T/C [34] 0.56% | viability, T/C [35] 0.32% | viability, T/C [36] 0.34% | viability, T/C [37] 0.6% | viability, T/C [38] 0.4% | viability, T/C [39] 0.42% | viability, T/C [40] 0.45% | viability, T/C [41] 0.17% | viability, T/C [42] 0.19%
5.72: pIC50 [1]
> 7.50: pIC50 [3] | pIC50 [4] | pIC50 [5] | pIC50 [6]
5.79: pIC50 [2]
inactive: viability, T/C [7] 96.6% | viability, T/C [8] 97.2% | viability, T/C [9] 91.7% | viability, T/C [10] 83.5% | viability, T/C [11] 23.2% | viability, T/C [13] 94.1% | viability, T/C [14] 101% | viability, T/C [15] 81.4% | viability, T/C [16] 72.5% | viability, T/C [17] 22.4% | viability, T/C [19] 30.5% | viability, T/C [20] 32.5% | viability, T/C [21] 30.3% | viability, T/C [22] 23.9% | viability, T/C [23] 17.9%

Nc1ccccc1NC(=O)c1ccc(CNC(=O)OCc2cccnc2)cc1 + CN1CCN(c2cc(C(=O)Nc3cc4cc(-c5cnn(C)c5)ccc4cn3)ccn2)CC1
active: viability, T/C [12] 1.31% | viability, T/C [18] 0.84% | viability, T/C [23] 3.98% | viability, T/C [24] 0.15% | viability, T/C [25] 1.55% | viability, T/C [26] 1.77% | viability, T/C [27] 1.31% | viability, T/C [28] 0.3% | viability, T/C [29] 0.25% | viability, T/C [30] 0.12% | viability, T/C [31] 0.38% | viability, T/C [32] 0.95% | viability, T/C [33] 0.9% | viability, T/C [34] 0.39% | viability, T/C [35] 0.52% | viability, T/C [36] 0.62% | viability, T/C [37] 0.58% | viability, T/C [38] 0.42% | viability, T/C [39] 0.45% | viability, T/C [40] 0.3% | viability, T/C [41] 0.62% | viability, T/C [42] 0.76%
> 7.50: pIC50 [3] | pIC50 [4] | pIC50 [5] | pIC50 [6]
inactive: viability, T/C [7] 103% | viability, T/C [8] 90% | viability, T/C [9] 76.3% | viability, T/C [10] 42.4% | viability, T/C [11] 16.2% | viability, T/C [13] 109% | viability, T/C [14] 103% | viability, T/C [15] 90.8% | viability, T/C [16] 38.9% | viability, T/C [17] 17.7% | viability, T/C [19] 30.4% | viability, T/C [20] 28.1% | viability, T/C [21] 29.1% | viability, T/C [22] 19%
6.09: pIC50 [2]
6.11: pIC50 [1]

COc1c(OCCCN2CCOCC2)ccc2c3n(c(=NC(=O)c4cnc(N)nc4)nc12)CCN3 + CN1CCN(c2cc(C(=O)Nc3cc4cc(-c5cnn(C)c5)ccc4cn3)ccn2)CC1
7.41: pIC50 [2]
inactive: viability, T/C (second compound 0.0316 µM, first compound 0.00316 µM) 103% | viability, T/C (second compound 0.0316 µM, first compound 0.01 µM) 72.8% | viability, T/C [7] 55.2% | viability, T/C [8] 37.8% | viability, T/C [9] 24.9% | viability, T/C [10] 15% | viability, T/C (second compound 0.1 µM, first compound 0.00316 µM) 89.9% | viability, T/C (second compound 0.1 µM, first compound 0.01 µM) 77.2% | viability, T/C [13] 48% | viability, T/C [14] 37.6% | viability, T/C [15] 25.3% | viability, T/C [16] 14.5% | viability, T/C (second compound 0.316 µM, first compound 0.00316 µM) 31.7% | viability, T/C (second compound 0.316 µM, first compound 0.01 µM) 22.1% | viability, T/C [19] 18.7% | viability, T/C [20] 16.6% | viability, T/C [21] 14.2% | viability, T/C [22] 11.9%
> 8.50: pIC50 [3] | pIC50 [4] | pIC50 [5] | pIC50 [6]
7.38: pIC50 [1]
active: viability, T/C (second compound 1 µM, first compound 0.00316 µM) 2.68% | viability, T/C (second compound 1 µM, first compound 0.01 µM) 2.64% | viability, T/C [25] 1.8% | viability, T/C [26] 1.85% | viability, T/C [27] 2.19% | viability, T/C [28] 2.43% | viability, T/C (second compound 3.16 µM, first compound 0.00316 µM) 0.37% | viability, T/C (second compound 3.16 µM, first compound 0.01 µM) 0.47% | viability, T/C [31] 0.92% | viability, T/C [32] 0.45% | viability, T/C [33] 0.44% | viability, T/C [34] 1.06% | viability, T/C (second compound 10 µM, first compound 0.00316 µM) 0.5% | viability, T/C (second compound 10 µM, first compound 0.01 µM) 0.28% | viability, T/C [37] 0.28% | viability, T/C [38] 0.32% | viability, T/C [39] 0.33% | viability, T/C [40] 0.34%
